ChEMBL document CHEMBL1201862, “PubChem BioAssay data set” (2004)
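Values below derive from 48-hour exposures of cells grown in 96-well plates, with endpoints linearly interpolated between the two concentrations bracketing the appropriate inhibition level. Abbreviation: GI50, concentration required for 50% inhibition of growth.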 Activity calls are given as the source filed them. Cut-off read from the data, not from the text of the source: active = GI50 up to about 1.1 µM and inactive = higher.

How the values were obtained:
Assay in all cases: NCI tumour cell line growth inhibition, 48 h
[1] = test system: 786-0
[2] = test system: A498
[3] = test system: A549
[4] = test system: ACHN
[5] = test system: CAKI-1
[6] = test system: CCRF-CEM
[7] = test system: COLO 205
[8] = test system: DLD-1
[9] = test system: DMS-114
[10] = test system: EKVX
[11] = test system: HCT-116
[12] = test system: HCT-15
[13] = test system: HL-60
[14] = test system: HOP-18
[15] = test system: HOP-62
[16] = test system: HOP-92
[17] = test system: HT-29
[18] = test system: IGROV-1
[19] = test system: K562
[20] = test system: KM-20L2
[21] = test system: KM12
[22] = test system: LOX IMVI
[23] = test system: LXFL 529
[24] = test system: M14
[25] = test system: M19-MEL
[26] = test system: MOLT-4
[27] = test system: Malme-3M
[28] = test system: NCI-H226
[29] = test system: NCI-H23
[30] = test system: NCI-H460
[31] = test system: NCI-H522
[32] = test system: OVCAR-3
[33] = test system: OVCAR-4
[34] = test system: OVCAR-5
[35] = test system: OVCAR-8
[36] = test system: RPMI-8226
[37] = test system: RXF 631
[38] = test system: SF-268
[39] = test system: SF-295
[40] = test system: SF-539
[41] = test system: SK-MEL-28
[42] = test system: SK-MEL-2
[43] = test system: SK-MEL-5
[44] = test system: SK-OV-3
[45] = test system: SN12C
[46] = test system: SNB-19
[47] = test system: SNB-75
[48] = test system: SNB-78
[49] = test system: SR
[50] = test system: SW-620
[51] = test system: TK-10
[52] = test system: U-251
[53] = test system: UACC-257
[54] = test system: UACC-62
[55] = test system: UO-31
[56] = test system: HCC 2998

CC(=O)Nc1ccccc1-c1nc2ccccc2nc1C
GI50 [1]: > 100 µM (inactive)
GI50 [2]: > 100 µM (inactive)
GI50 [3]: > 100 µM (inactive)
GI50 [4]: > 100 µM (inactive)
GI50 [5]: > 100 µM (inactive)
GI50 [6]: > 100 µM (inactive)
GI50 [7]: > 100 µM (inactive)
GI50 [8]: > 100 µM (inactive)
GI50 [9]: > 100 µM (inactive)
GI50 [10]: > 100 µM (inactive)
GI50 [11]: > 100 µM (inactive)
GI50 [12]: > 100 µM
GI50 [13]: > 100 µM (inactive)
GI50 [14]: > 100 µM (inactive)
GI50 [15]: > 100 µM (inactive)
GI50 [16]: > 100 µM (inactive)
GI50 [17]: > 100 µM (inactive)
GI50 [18]: > 100 µM (inactive)
GI50 [19]: > 100 µM (inactive)
GI50 [20]: > 100 µM (inactive)
GI50 [21]: > 100 µM (inactive)
GI50 [22]: > 100 µM (inactive)
GI50 [23]: > 100 µM (inactive)
GI50 [24]: > 100 µM (inactive)
GI50 [25]: > 100 µM (inactive)
GI50 [26]: > 100 µM (inactive)
GI50 [27]: > 100 µM (inactive)
GI50 [28]: > 100 µM (inactive)
GI50 [29]: > 100 µM (inactive)
GI50 [30]: > 100 µM (inactive)
GI50 [31]: > 100 µM (inactive)
GI50 [32]: > 100 µM (inactive)
GI50 [33]: > 100 µM (inactive)
GI50 [34]: > 100 µM (inactive)
GI50 [35]: > 100 µM (inactive)
GI50 [36]: > 100 µM (inactive)
GI50 [37]: > 100 µM (inactive)
GI50 [38]: > 100 µM (inactive)
GI50 [39]: > 100 µM (inactive)
GI50 [40]: > 100 µM (inactive)
GI50 [41]: > 100 µM (inactive)
GI50 [42]: > 100 µM (inactive)
GI50 [43]: > 100 µM (inactive)
GI50 [44]: > 100 µM (inactive)
GI50 [45]: > 100 µM (inactive)
GI50 [46]: > 100 µM (inactive)
GI50 [47]: 81.5 µM (inactive)
GI50 [48]: > 100 µM (inactive)
GI50 [49]: > 100 µM (inactive)
GI50 [50]: > 100 µM (inactive)
GI50 [51]: > 100 µM (inactive)
GI50 [52]: > 100 µM (inactive)
GI50 [53]: > 100 µM (inactive)
GI50 [54]: > 100 µM (inactive)
GI50 [55]: 61.9 µM (inactive)

Cc1nc(C(N)=O)c(N)n1CCN1CCN(C(=O)CCCCCCCCCCNC2NC=Nc3[nH]cnc32)CC1 (centres undefined)
GI50 [1]: > 100 µM (inactive)
GI50 [2]: > 100 µM (inactive)
GI50 [3]: 51.2 µM (inactive)
GI50 [4]: 29.4 µM (inactive)
GI50 [5]: > 10 µM (inactive)
GI50 [6]: 13.8 µM (inactive)
GI50 [7]: 73.5 µM (inactive)
GI50 [9]: 6.04 µM (inactive)
GI50 [56]: > 100 µM (inactive)
GI50 [11]: 43.4 µM (inactive)
GI50 [12]: > 100 µM
GI50 [13]: 15.2 µM (inactive)
GI50 [14]: > 100 µM (inactive)
GI50 [15]: 91.6 µM (inactive)
GI50 [16]: 16.3 µM (inactive)
GI50 [17]: > 100 µM (inactive)
GI50 [18]: 52.6 µM (inactive)
GI50 [19]: 13.2 µM (inactive)
GI50 [20]: > 100 µM (inactive)
GI50 [21]: 41 µM (inactive)
GI50 [22]: 33.1 µM (inactive)
GI50 [23]: 11.2 µM (inactive)
GI50 [24]: 25.7 µM (inactive)
GI50 [25]: 34.4 µM (inactive)
GI50 [26]: 11.6 µM (inactive)
GI50 [27]: 31.2 µM (inactive)
GI50 [29]: 10.1 µM (inactive)
GI50 [30]: 32.7 µM (inactive)
GI50 [31]: > 10 µM (inactive)
GI50 [32]: 45.9 µM (inactive)
GI50 [34]: > 100 µM (inactive)
GI50 [35]: 33.9 µM (inactive)
GI50 [37]: > 100 µM (inactive)
GI50 [38]: 41.7 µM (inactive)
GI50 [39]: 41.1 µM (inactive)
GI50 [40]: > 100 µM (inactive)
GI50 [41]: 22 µM (inactive)
GI50 [42]: 14.3 µM (inactive)
GI50 [44]: > 100 µM (inactive)
GI50 [45]: 80.7 µM (inactive)
GI50 [46]: > 100 µM (inactive)
GI50 [48]: 39.5 µM (inactive)
GI50 [49]: 13.6 µM (inactive)
GI50 [50]: > 100 µM (inactive)
GI50 [51]: 90.2 µM (inactive)
GI50 [52]: > 100 µM (inactive)
GI50 [53]: 16.3 µM (inactive)
GI50 [54]: 29.8 µM (inactive)
GI50 [55]: > 100 µM (inactive)
